Biological target: human PCSK9 (Homo sapiens, UniProt Q8NBP7)
Assay: PCSK9 ligand binding TR-FRET assay (interference with binding of human PCSK9 to human LDLR)
Conditions: for Max % inhibition: PCSK9 FRET assay, efficacy (Amax), 100% = 1 uM unlabeled human PCSK9, 0% = DMSO; for IC50: TR-FRET, human PCSK9 Alexa Fluor 647 / human LDLR extracellular domain-Europium Kryptate, read-out: PCSK9 FRET Assay IC50
Outline: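 Threefold compound dilutions were pre-incubated 30 min with PCSK9, after which 4 nM Europium Kryptate-tagged human LDLR ectodomain was added for a further 2 h.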

human PCSK9, sequence (Q8NBP7 153-692): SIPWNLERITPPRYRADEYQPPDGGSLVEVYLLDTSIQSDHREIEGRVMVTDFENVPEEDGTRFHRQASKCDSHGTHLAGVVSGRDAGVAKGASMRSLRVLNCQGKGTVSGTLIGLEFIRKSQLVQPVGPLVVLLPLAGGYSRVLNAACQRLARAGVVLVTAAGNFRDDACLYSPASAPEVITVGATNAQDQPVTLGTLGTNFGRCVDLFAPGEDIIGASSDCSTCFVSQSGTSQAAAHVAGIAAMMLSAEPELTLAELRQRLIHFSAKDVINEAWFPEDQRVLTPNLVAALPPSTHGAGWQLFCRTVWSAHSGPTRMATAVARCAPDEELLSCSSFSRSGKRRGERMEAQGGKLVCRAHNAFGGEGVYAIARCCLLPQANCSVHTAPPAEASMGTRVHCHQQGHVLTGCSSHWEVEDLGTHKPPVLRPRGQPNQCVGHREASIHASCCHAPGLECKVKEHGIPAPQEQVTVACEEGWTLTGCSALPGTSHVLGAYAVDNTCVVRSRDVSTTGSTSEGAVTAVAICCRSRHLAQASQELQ
human PCSK9, sequence (Q8NBP7 31-152 partner limits assumed): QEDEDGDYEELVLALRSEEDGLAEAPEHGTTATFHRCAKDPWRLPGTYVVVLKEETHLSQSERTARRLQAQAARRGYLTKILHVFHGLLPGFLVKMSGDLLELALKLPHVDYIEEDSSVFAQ

SMILES	Max % inhibition	IC50
COC[C@@H]1NC(=O)[C@H](C)N(Cc2ccc(Cl)cc2Oc2ccc(-c3cnc(CN(C)C)n3C)cc2)C(=O)CC(Cn2ccccc2=O)C(=O)N(C)[C@H]2CCCC[C@@H]2NC(=O)C[C@H](Cc2ccc(Cl)cc2)N(C)C1=O (stereo partly drawn) [Compound 276, (4S,7S,10S,16aS,20aS)-11-(4-chloro-2-(4-(2-((dimethylamino)methyl)-1-methyl-1H-imidazol-5-yl)phenoxy)benzyl)-4-(4-chlorobenzyl)-7-(methoxymethyl)-5,10,16-trimethyl-14-((2-oxopyridin-1(2H)-yl)methyl)hexadecahydrobenzo[l][1,4,7,11,14]pentaazacyclooctadecine-2,6,9,12,15(3H)-pentaone]	101.53%	16.4 nM
COC[C@H]1CNC(=O)C[C@H](Cc2ccc(Cl)cc2)N(C)C(=O)[C@H](COC)NC(=O)[C@H](C)N(Cc2ccc(Cl)cc2Oc2ccc(-c3cnc(CN(C)C)n3C)cc2)C(=O)C[C@@H](Cc2ccccc2)C(=O)N1C [Compound 27, (2S,5S,8S,13R,16R)-16-benzyl-1-(4-chloro-2-(4-(2-((dimethylamino)methyl)-1-methyl-1H-imidazol-5-yl)phenoxy)benzyl)-8-(4-chlorobenzyl)-5,13-bis(methoxymethyl)-2,7,14-trimethyl-1,4,7,11,14-pentaazacyclooctadecane-3,6,10,15,18-pentaone]	101.53%	1.1 nM
COC[C@@H]1NC(=O)[C@H](C)N(Cc2cccnc2Oc2ccc(-c3cnc(CN(C)C)n3C)cc2)C(=O)C[C@@H](Cc2ccccc2)C(=O)N(C)[C@@H](C)CNC(=O)C[C@H](Cc2ccc(Cl)cc2)N(C)C1=O [Compound 210, (2S,5S,8S,13S,16R)-16-benzyl-8-(4-chlorobenzyl)-1-((2-(4-(2-((dimethylamino)methyl)-1-methyl-1H-imidazol-5-yl)phenoxy)pyridin-3-yl)methyl)-5-(methoxymethyl)-2,7,13,14-tetramethyl-1,4,7,11,14-pentaazacyclooctadecane-3,6,10,15,18-pentaone]	91.38%	14.7 nM
CCc1ncc(-c2ccc(Oc3cc(Cl)ccc3CN3C(=O)C[C@@H](Cc4ccccc4)C(=O)N(C)[C@@H](C)CNC(=O)C[C@H](Cc4ccc(Cl)cc4)N(C)C(=O)[C@H](COC)NC(=O)[C@@H]3C)cc2)n1C [Compound 181, (2S,5S,8S,13S,16R)-16-benzyl-1-(4-chloro-2-(4-(2-ethyl-1-methyl-1H-imidazol-5-yl)phenoxy)benzyl)-8-(4-chlorobenzyl)-5-(methoxymethyl)-2,7,13,14-tetramethyl-1,4,7,11,14-pentaazacyclooctadecane-3,6,10,15,18-pentaone]	54.93%	10.3 nM
COC[C@@H]1NC(=O)[C@H](C)N(Cc2ccc(Cl)cc2Oc2ccc(-n3cnc(CN4CCOCC4)c3C)cc2)C(=O)C[C@@H](Cc2ccccc2)C(=O)N(C)[C@H]2CCCC[C@@H]2NC(=O)C[C@H](Cc2ccc(Cl)cc2)N(C)C1=O [Compound 266, (4S,7S,10S,14R,16aS,20aS)-14-benzyl-11-(4-chloro-2-(4-(5-methyl-4-(morpholinomethyl)-1H-imidazol-1-yl)phenoxy)benzyl)-4-(4-chlorobenzyl)-7-(methoxymethyl)-5,10,16-trimethylhexadecahydrobenzo[l][1,4,7,11,14]pentaazacyclooctadecine-2,6,9,12,15(3H)-pentaone]	106.30%	1.9 nM
COC[C@@H]1NC(=O)[C@H](C)N(Cc2ccc(Cl)cc2Oc2c(F)cc(-c3cnc(CN4CCCC4)n3C)cc2F)C(=O)C[C@@H](Cc2ccccc2)C(=O)N(C)[C@@H](C)CNC(=O)C[C@H](Cc2ccc(Cl)cc2)N(C)C1=O [Compound 298, (2S,5S,8S,13S,16R)-16-benzyl-1-(4-chloro-2-(2,6-difluoro-4-(1-methyl-2-(pyrrolidin-1-ylmethyl)-1H-imidazol-5-yl)phenoxy)benzyl)-8-(4-chlorobenzyl)-5-(methoxymethyl)-2,7,13,14-tetramethyl-1,4,7,11,14-pentaazacyclooctadecane-3,6,10,15,18-pentaone]	99.00%	2.01 nM
CCc1ccc(CN2C(=O)C[C@@H](Cc3ccccc3)C(=O)N(C)[C@H]3CCCC[C@@H]3NC(=O)C[C@H](Cc3ccc(Cl)cc3)N(C)C(=O)[C@H](COC)NC(=O)[C@@H]2C)c(Oc2ccc(-c3cnc(CN4CCCC4)n3C)cc2)c1 [Compound 223, (4S,7S,10S,14R,16aS,20aS)-14-benzyl-4-(4-chlorobenzyl)-11-(4-ethyl-2-(4-(1-methyl-2-(pyrrolidin-1-ylmethyl)-1H-imidazol-5-yl)phenoxy)benzyl)-7-(methoxymethyl)-5,10,16-trimethylhexadecahydrobenzo[l][1,4,7,11,14]pentaazacyclooctadecine-2,6,9,12,15(3H)-pentaone]	100.16%	1.8 nM
CCCC#Cc1ncc(-c2ccc(Oc3cc(Cl)ccc3CN3C(=O)C[C@@H](Cc4ccccc4)C(=O)N(C)[C@@H](C)CNC(=O)C[C@H](Cc4ccc(Cl)cc4)N(C)C(=O)[C@H](COC)NC(=O)[C@@H]3C)cc2)n1C [Compound 30, (2S,5S,8S,13S,16R)-16-benzyl-1-(4-chloro-2-(4-(1-methyl-2-(pent-1-yn-1-yl)-1H-imidazol-5-yl)phenoxy)benzyl)-8-(4-chlorobenzyl)-5-(methoxymethyl)-2,7,13,14-tetramethyl-1,4,7,11,14-pentaazacyclooctadecane-3,6,10,15,18-pentaone]	85.21%	59.8 nM
COC[C@@H]1NC(=O)[C@H](C)N(Cc2ccc(Cl)cc2Oc2ccc(-c3cnc(C(C)N4CCCC4)n3C)cc2)C(=O)C[C@@H](C)C(=O)N(C)[C@@H](C)CNC(=O)C[C@H](Cc2ccc(Cl)cc2)N(C)C1=O (stereo in doubt) [Compound 103, (2S,5S,8S,13S,16R)-1-(4-chloro-2-(4-(1-methyl-2-((S)-1-(pyrrolidin-1-yl)ethyl)-1H-imidazol-5-yl)phenoxy)benzyl)-8-(4-chlorobenzyl)-5-(methoxymethyl)-2,7,13,14,16-pentamethyl-1,4,7,11,14-pentaazacyclooctadecane-3,6,10,15,18-pentaone]	106.00%	10.1 nM
COC[C@@H]1NC(=O)[C@H](C)N(Cc2ccc(Cl)cc2Oc2ccc(-c3cnc(CN(C)C)n3C)cc2)C(=O)C[C@@H](Cc2ccccc2)C(=O)N(C)[C@@H](C(=O)OC)CNC(=O)C[C@H](Cc2ccc(Cl)cc2)N(C)C1=O [Compound 71, (2S,5S,8S,13R,16R)-methyl 16-benzyl-1-(4-chloro-2-(4-(2-((dimethylamino)methyl)-1-methyl-1H-imidazol-5-yl)phenoxy)benzyl)-8-(4-chlorobenzyl)-5-(methoxymethyl)-2,7,14-trimethyl-3,6,10,15,18-pentaoxo-1,4,7,11,14-pentaazacyclooctadecane-13-carboxylate]	102.12%	12.9 nM
CC[C@H]1C(=O)N[C@@H](COC)C(=O)N(C)[C@@H](Cc2ccc(Cl)cc2F)CC(=O)NC[C@H](C)N(C)C(=O)[C@H](Cc2ccccc2)CC(=O)N1Cc1ccc(Cl)cc1Oc1ccc(-c2cnc(CN(C)C)n2C)cc1 [Compound 248, (2S,5S,8S,13S,16R)-16-benzyl-1-(4-chloro-2-(4-(2-((dimethylamino)methyl)-1-methyl-1H-imidazol-5-yl)phenoxy)benzyl)-8-(4-chloro-2-fluorobenzyl)-2-ethyl-5-(methoxymethyl)-7,13,14-trimethyl-1,4,7,11,14-pentaazacyclooctadecane-3,6,10,15,18-pentaone]	106.74%	2.2 nM
